Source: publication PMC4116177, “Rational Modification of Estrogen Receptor by Combination of Computational and Experimental Analysis” (PLoS ONE, 2014)

Assays:
[1] = biological target: T1, M421I-ERα ^LBD (Homo sapiens, UniProt P03372, M421I); assay: PolarScreen competitive binding assay (fluorescence polarization) with M421I mutant
T1 construct: The polypeptide fragment 303-547 of the human ERα has been thus cloned; made in house; host or cells: E. coli Rosetta 2(DE3)pLysS
T1 sequence (P03372 303-547 M421I): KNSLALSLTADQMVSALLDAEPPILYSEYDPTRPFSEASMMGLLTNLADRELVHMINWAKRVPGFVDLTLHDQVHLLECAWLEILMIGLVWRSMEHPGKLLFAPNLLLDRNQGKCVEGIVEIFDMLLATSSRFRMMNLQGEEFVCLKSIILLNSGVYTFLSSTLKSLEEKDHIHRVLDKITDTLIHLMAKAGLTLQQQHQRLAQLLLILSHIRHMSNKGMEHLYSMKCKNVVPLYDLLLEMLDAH
Protocol: (§1) The PolarScreen assay was used to test the ligand binding affinity of wt-ERα ^LBD and its mutants towards different classes of estrogen disrupting compounds.
(§2) Each compound was tested in a range of 12 concentrations with the ER receptors (Figure 5). The compounds concentrations (X axis) were plotted in a logarithmic scale against the Polarization values (Y axis). The plot of compounds concentrations against Polarization were fitted with a one site competition […] logistic curve (see Materials and Methods for further details).
(§3) To test the binding affinity of the recombinant receptor for EDCs we used the competitive binding assay developed by Life Technologies for ERα, the PolarScreen Estrogen Receptor-α Competitor Green Assay.
(§4) The full length ERα provided with the kit was replaced by our recombinant ERα ^LBD. […] This complex is then mixed and incubated at 25°C for 2 h with the individual EDCs and the intensity of the fluorescence polarization signal (directly proportional to the amount of Fluormone bound to the protein) measured. The addition of competitors displaces the Fluormone from the ERα ^LBD receptor, resulting in a decreased fluorescence signal. The fluorescence polarization anisotropy signal (P) is read using an Infinite 200 Pro multimode plate reader from Tecan and calculated with the following equation: [drawing 1] […]

[2] = biological target: T2, M421F-ERα ^LBD (Homo sapiens, UniProt P03372, M421F); assay: PolarScreen competitive binding assay (fluorescence polarization) with M421F mutant
T2 construct: The polypeptide fragment 303-547 of the human ERα has been thus cloned; made in house; host or cells: E. coli Rosetta 2(DE3)pLysS
T2 sequence (P03372 303-547 M421F): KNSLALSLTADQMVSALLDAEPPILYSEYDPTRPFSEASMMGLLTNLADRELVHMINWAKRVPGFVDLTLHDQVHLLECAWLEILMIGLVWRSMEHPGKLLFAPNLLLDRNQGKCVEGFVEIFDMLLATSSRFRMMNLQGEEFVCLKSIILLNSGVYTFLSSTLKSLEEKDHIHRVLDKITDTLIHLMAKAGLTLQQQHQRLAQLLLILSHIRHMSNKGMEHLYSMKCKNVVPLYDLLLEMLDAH
Protocol: as §1, §2, §3
The full length ERα provided with the kit was replaced by our recombinant ERα ^LBD. In short, wt or mutant ERα ^LBD are added to the Fluormone and incubated at 4°C for 45 minutes to form the receptor-Fluormone complex. This complex is then mixed and incubated at 25°C for 2 h with the individual EDCs and the intensity of the fluorescence polarization signal (directly proportional to the amount of Fluormone bound to the protein) measured. The addition of competitors displaces the Fluormone from the ERα ^LBD receptor, resulting in a decreased fluorescence signal. The fluorescence polarization anisotropy signal (P) is read using an Infinite 200 Pro multimode plate reader from Tecan and calculated with the following equation: [drawing 1]
The P data (y) were fitted against the competitor concentrations (x) with a typical one site competition three parameters logistic curve: [drawing 2]
LogIC50 = Log of the concentration of test compound required to reduce the maximum polarization value by 50%. All the resulting IC50 values are obtained by the average of at least four different experiments.

[3] = biological target: T3, wt-ERα ^LBD (Homo sapiens, UniProt P03372); assay: PolarScreen competitive binding assay (fluorescence polarization) with wt-ERα LBD
T3 construct: The polypeptide fragment 303-547 of the human ERα has been thus cloned; made in house; host or cells: E. coli Rosetta 2(DE3)pLysS
T3 sequence (P03372 303-547): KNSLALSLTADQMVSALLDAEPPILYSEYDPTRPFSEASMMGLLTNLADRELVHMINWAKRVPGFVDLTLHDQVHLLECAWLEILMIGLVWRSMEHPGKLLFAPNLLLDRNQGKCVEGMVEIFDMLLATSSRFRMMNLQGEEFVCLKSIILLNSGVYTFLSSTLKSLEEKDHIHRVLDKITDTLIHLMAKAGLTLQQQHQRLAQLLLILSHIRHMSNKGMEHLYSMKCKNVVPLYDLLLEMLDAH
Protocol: as §1, §2, §3, §4

[4] = Thermal unfolding followed by CD spectroscopy at 222 nm; format: physicochemical
Protocol: The thermal stability of the different ERs was assessed by following the protein thermal unfolding between 25 and 90°C with CD spectroscopy (Figures 3D, 3E and 3F). The unfolding process is not reversible: by cooling back the samples to 25°C only around 50% of the original secondary structure of the protein is recovered (data not shown). By fitting the experimental data with a Boltzmann-type equation it was possible to calculate melting temperature (Tm) values of 59.5±1.5°C, 65.8±1.4°C, and 61.5±1.3°C for the wt-ERα ^LBD, M421F-ERα ^LBD, and M421I-ERα ^LBD proteins, respectively.
Circular dichroism spectra were recorded with a J750 Circular dichroism spectrometer from Jasco interfaced with a Peltier temperature control unit with 1 mm path length cuvette. Analysis of the far-UV region (185–260 nm) was used to investigate the secondary structure and the folding of the protein. CD spectra were analyzed with the DichroWeb online software, by means of the CDSSTR program. Thermal denaturation experiments were performed by monitoring the circular dichroism at 222 nm while changing the temperature from 25 to 90°C (1°C/min) and backward. Reference spectra were collected for the buffers in which proteins were dissolved. Denaturation curves were analyzed assuming a two-state unfolding model and melting temperature (Tm) was calculated for every mutant. […]

In the case of `CCCCCCCCCc1ccc(O)cc1` [4-Nonylphenol], the IC50 [1] is reported as 60 ± 30 µM, the IC50 [2] is reported as 4 ± 2 µM and the “IC50 of M421F-ERα ^LBD compared to wt-ERα ^LBD (in words)” value ([2]; M421F versus wt) is reported as “twice as strong”. It also gave an IC50 [3] of 8 ± 1 µM.

With `CC(C)(c1ccc(O)cc1)c1ccc(O)cc1` [Bisphenol-A] the “binds more strongly to M421F-ERα ^LBD than to wt-ERα ^LBD” value ([2]; from IC50 values, M421F versus wt) was “approximately 6 times”.

B1: wt-ERα ^LBD: recombinant His6-tagged polypeptide fragment 303-547 (ligand binding domain) of human ERα, wild type (protein, UniProt P03372 303-547, looked up, fragment)
chain: KNSLALSLTADQMVSALLDAEPPILYSEYDPTRPFSEASMMGLLTNLADRELVHMINWAKRVPGFVDLTLHDQVHLLECAWLEILMIGLVWRSMEHPGKLLFAPNLLLDRNQGKCVEGMVEIFDMLLATSSRFRMMNLQGEEFVCLKSIILLNSGVYTFLSSTLKSLEEKDHIHRVLDKITDTLIHLMAKAGLTLQQQHQRLAQLLLILSHIRHMSNKGMEHLYSMKCKNVVPLYDLLLEMLDAH
modifications: ligand binding domain His6 tag
With B1 the “melting temperature (Tm)” value ([4]; CD at 222 nm, 25 to 90°C, Boltzmann-type fit) was 59.5±1.5 °C and the “melting temperature higher than that previously reported for the full-length ERα protein” value ([4]; versus full-length ERα) was “about 20 °C”.
